Reference: ChEMBL document CHEMBL6096666, “Design, synthesis and biological evaluation of alginate oligosaccharide derivatives” (Bioorg Med Chem Lett, 2025)
Calls of active or inactive are those of the source. No cut-off for these calls is given here.

Tests used:
HK-2 [1] = test: Anti-inflammatory activity against H/R induced damage in human HK-2 cells assessed as inhibition of TLR4 protein expression pretreated with compound followed by hypoxic reoxygenation induction; assay type: functional, cell-based
Rattus norvegicus = organism: Rattus norvegicus; test: Protection against kidney ischemia-reperfusion injury in rat model assessed as decrease in blood creatinine level; assay type: functional, organism-based
HK-2 [2] = test: Anti-inflammatory activity against H/R induced damage in human HK-2 cells assessed as inhibition of IL-1beta protein expression pretreated with compound followed by hypoxic reoxygenation induction; assay type: functional, cell-based
HK-2 [3] = test: Anti-inflammatory activity against H/R induced damage in human HK-2 cells assessed as inhibition of MyD88 protein expression pretreated with compound followed by hypoxic reoxygenation induction; assay type: functional, cell-based
HK-2 [4] = test: Anti-inflammatory activity against H/R induced damage in human HK-2 cells assessed as inhibition of p-NFkappaB protein expression pretreated with compound followed by hypoxic reoxygenation induction; assay type: functional, cell-based

Compound | Activity (HK-2 [1]) | Activity (Rattus norvegicus) | Activity (HK-2 [2]) | Activity (HK-2 [3]) | Activity (HK-2 [4])
O=C(O)[C@@H]1C[C@@H](O)[C@@H](O)[C@H](O[C@@H]2[C@@H](O)[C@@H](O)[C@H](O[C@@H]3[C@@H](O)[C@@H](O)[C@H](O[C@@H]4[C@@H](O)[C@@H](O)[C@@H](O)O[C@@H]4C(=O)O)O[C@@H]3C(=O)O)O[C@@H]2C(=O)O)O1 | Active | – | – | – | –
O=C(O)[C@@H]1C[C@@H](O)[C@@H](O)[C@H](O[C@@H]2[C@@H](O)[C@@H](O)[C@@H](O)O[C@@H]2C(=O)O)O1 | Active | Active | – | – | –
O=C(O)[C@@H]1C[C@@H](O)[C@@H](O)[C@H](O[C@@H]2[C@@H](O)[C@@H](O)[C@H](O[C@@H]3[C@@H](O)[C@@H](O)[C@@H](O)O[C@@H]3C(=O)O)O[C@@H]2C(=O)O)O1 | – | Active | Active | – | –
O=C(O)[C@@H]1C[C@@H](O)[C@@H](O)[C@H](O[C@@H]2[C@@H](O)[C@@H](O)[C@H](O[C@H]([C@@H](O)[C@@H](O)C(=O)O)[C@H](O)C(=O)O)O[C@@H]2C(=O)O)O1 | Active | – | Active | Active | Active
